According to patent publication US11471504B2, “Combination therapy for the treatment of cancer” (Yeda Research and Development Co. Ltd., priority 2017, dated 2022):
Entries after “also recorded” stand apart in the source; their conditions may differ. Residues, ends and D or L forms follow the SMILES beside them. *: point of attachment. Myristoyl = CCCCCCCCCCCCCC(=O)*

What was measured:
[1] = system: nuclear translocation of ERK1/2; test: ERK1/2 nuclear translocation, fluorescence microscopy, EPE-resistant melanomas (110T, 39T, 103T); type: cell-based, human; conditions: EPE-resistant cells; serum starved, peptide 10 μM 2 h, TPA 100 nM 15 min
Experimental: (§1) FIGS. 2A-B: The EPE peptide blocks the nuclear translocation in “sensitive” NRAS melanomas. The same seven cell lines selected previously, were serum starved (14 h), pre-treated with EPE or Scr peptide […], and stimulated with TPA (100 nM, 15 min) or left untreated (NS). Cells were then fixed and stained with αERK2 Abs and DAPI. […] (B) The effect of EPE peptide on the nuclear translocation of ERK1/2 is modest in resistant cells compared to (A). Bars represent average percentage of cells with mostly nuclear (N, red), nuclear and cytosolic (NC, black) or mostly cytosolic (C, white) staining. Error bars represent standard error of 2 or 3 independent experiments. Quantification was done by counting at least three fields with >150 cells.
(§2) Fluorescence microscopy: Cells were seeded on coverslips coated with 0.001% w/v poly-L-Lysine (PLL) at 60% confluency. After treatments, cells were fixed in 4% paraformaldehyde/PBS^−/− for 20 min on ice surface, permeabilized with 0.1% Triton X-100/PBS^−/− for 5 min at 23° C., then blocked in 2% BSA/PBS^−/− for 30 min at 23° C. […] Slides were analyzed and photographed by a fluorescence microscope (Olympus BX51, x40). […]

[2] = system: cancer cell types, BRAF melanomas; conditions: cited from earlier work
[3] = system: 60T NRAS mutant melanoma cells; conditions: 10 µM
Experimental: (§9) (A) Effect of the EPE peptide on proliferation of metastatic melanoma cells. Thirty-six melanoma cell lines derived from metastatic tumor resections were treated with either EPE or scrambled (Scr) peptides (10 μM). […] Cell viability was measured by CellTiter-Glo reagent after 72 h of treatment. Bars represent percentage of growth respect to Scr peptide control ±S.E. of 3 independent experiments.
(§10) Pathology-confirmed melanoma cell lines were derived from mechanically or enzymatically dispersed tumor cells, which were then cultured in RPMI-1640 supplemented with 10% FBS at 37° C. in 5% CO2 for 5-15 passages. All cell lines have tested negative for mycoplasma.
(§11) Cell viability assay: Cells were seeded at a density of 4000 cells per well into 96-well plates in complete medium. After 24 h, medium was replaced by 1% FCS containing appropriate treatments. Fresh medium containing the same agents was replaced every day. After 96 h, cell proliferation was assessed using the CellTiter-Glo reagent (Promega). IC50 values were determined using GraphPad Prism.

ERK1/2 signaling [4] = test: Western blot of ERK1/2 signaling, EPE-sensitive NRAS melanomas (60T, 83T); type: cell-based, human; conditions: EPE-sensitive cells, 10 μM 2 h
Experimental: (§3) FIGS. 3A-B: The EPE peptide reduces phosphorylation of nuclear targets in NRAS mutant melanomas. Two NRAS melanomas sensitive to EPE peptide (60T an 83T), and two EPE-resistant melanomas (39T and 103T), were serum starved (16 h), pretreated with EPE or Scr peptides (10 μM, 2 h), and stimulated with TPA (100 nM, 15 min) (+) or left untreated (−). […] (A) (Left) In the EPE-sensitive cells, the peptide reduced the phosphorylation of nuclear targets Elk1 and c-Myc in stimulated and basal state, while not affecting cytosolic target RSK. […] (B) Quantification of bands in (A). Bars represent average band density ratio of EPE stimulated samples (EPE+) compared to Scr stimulated samples (Scr+), ±S.E. of 2 or 3 independent experiments. Bands were quantified using ImagJ.
(§4) Quantification of blots was done using ImageJ.

[5] = system: 110T NRAS mutant melanoma cells; test: Cell viability assay (CellTiter-Glo), 110T; type: cell-based, human; conditions: 10 μM, 72 h
Experimental: (§5) (B) Effect of BRAF inhibitor vemurafenib on selected melanomas. […] All melanoma cells selected were resistant to BRAF inhibition.
(§6) Dots represent triplicates for every concentration point. […] Viable cells were quantified using CellTiter-Glo reagent. […] Quantified levels are given under the blots. ImageJ was used for the quantification.
(§7) All cell lines have tested negative for mycoplasma.
(§8) IC50 values were determined using GraphPad Prism.

[6] = system: 83T NRAS mutant melanoma cells; test: Cell viability assay (CellTiter-Glo), 83T; type: cell-based, human; conditions: 10 μM, 72 h
Experimental: as §5, §6, §7, §8

[7] = system: 63T NRAS mutant melanoma cells; conditions: 10 µM
Experimental: as §9, §10, §11

[8] = system: 120T NRAS mutant melanoma cells; test: Cell viability assay (CellTiter-Glo), 120T; type: cell-based, human; conditions: 10 μM, 72 h
[9] = system: nuclear translocation of ERK1/2; test: ERK1/2 nuclear translocation, fluorescence microscopy, EPE-sensitive NRAS melanomas (63T, 83T, 120T, 60T); type: cell-based, human; conditions: EPE-sensitive cells; serum starved, peptide 10 μM 2 h, TPA 100 nM 15 min
Experimental: as §1, §2

[10] = system: 39T NF1 mutant melanoma cells; test: Cell viability assay (CellTiter-Glo), 39T; type: cell-based, human; conditions: 10 μM, 72 h
melanoma cell lines = test: Cell viability assay (CellTiter-Glo), panel of melanoma cell lines; type: cell-based, human; conditions: 36 melanoma cell lines, peptide 10 μM, 72 h
[11] = system: interaction of Importin7 with ERK1/2; conditions: cited from earlier work
ERK1/2 signaling [12] = test: Western blot of ERK1/2 signaling, EPE-resistant melanomas (39T, 103T); type: cell-based, human; conditions: EPE-resistant cells, 10 μM 2 h
Experimental: as §3, §4

[13] = system: BRAF and MEK inhibitor-resistant models; conditions: cited from earlier work

Compound: CCCCCCCCCCCCCC(=O)NCC(=O)N[C@@H](CCC(N)=O)C(=O)N[C@@H](CC(C)C)C(=O)N[C@@H](CC(N)=O)C(=O)N[C@@H](Cc1c[nH]cn1)C(=O)N[C@H](C(=O)N[C@@H](CC(C)C)C(=O)NCC(=O)N[C@H](C(=O)N[C@@H](CC(C)C)C(=O)NCC(=O)N[C@@H](CCC(=O)O)C(=O)N1CCC[C@H]1C(=O)N[C@@H](CCC(=O)O)C(=O)N[C@@H](CCC(N)=O)C(=O)N[C@@H](CCC(=O)O)C(=O)N[C@@H](CC(=O)O)C(=O)N[C@@H](CC(C)C)C(N)=O)[C@@H](C)CC)[C@@H](C)CC [EPE peptide] (Myristoyl-GQLNHILGILGEPEQEDL-NH2)
- effect on stimulated nuclear translocation of ERK1/2 [1]: disrupted; also recorded: modest
- apoptosis ([2]; BRAF melanomas): induces apoptosis
- proliferation of cancer cell types ([2]; several cancer cell types): inhibit the proliferation
- sensitivity to the EPE peptide (percentage of viability compared to Scr peptide control) [3]: sensitive
- activity of ERK1/2 (phosphorylation of activatory TEY motif and substrate RSK) (ERK1/2 signaling [4]): did not inhibit
- phosphorylation of cytosolic target RSK (ERK1/2 signaling [4]): not affecting
- phosphorylation of nuclear target Elk1 (ERK1/2 signaling [4]; basal and TPA-stimulated): reduced
- phosphorylation of nuclear target c-Myc (ERK1/2 signaling [4]; basal and TPA-stimulated): reduced
- sensitivity to the EPE peptide (percentage of viability compared to Scr peptide control) [5]: resistant (resistant (above 80%))
- sensitivity to the EPE peptide (percentage of viability compared to Scr peptide control) [6]: sensitive
- sensitivity to the EPE peptide (percentage of viability compared to Scr peptide control) [7]: sensitive
- sensitivity to the EPE peptide (percentage of viability compared to Scr peptide control) [8]: sensitive
- effect on stimulated nuclear translocation of ERK1/2 [9]: disrupted; also recorded: significantly reduces
- sensitivity to the EPE peptide (percentage of viability compared to Scr peptide control) [10]: resistant (resistant (above 80%))
- sensitivity of metastatic melanoma cell lines to the EPE peptide (viability vs Scr peptide) (melanoma cell lines): A subset of BRAF, NRAS and NF1 mutant melanomas were sensitive
- interaction of Importin7 with ERK1/2 and nuclear translocation of ERK1/2 [11]: inhibited
- activity of ERK1/2 (phosphorylation of activatory TEY motif and substrate RSK) (ERK1/2 signaling [12]): did not inhibit
- phosphorylation levels of c-Myc (ERK1/2 signaling [12]): slightly increased
- phosphorylation of Elk1 (ERK1/2 signaling [12]): no effect
- phosphorylation of RSK (ERK1/2 signaling [12]): no effect

Compound: O=C(Nc1ccc2[nH]nc(-c3ccncc3)c2c1)[C@@H]1CCN(CC(=O)N2CCN(c3ccc(-c4ncccn4)cc3)CC2)C1 [SCH772984]
- tumor growth [13]: showed benefits in reducing tumor growth
